Experimental data as given in PubChem BioAssay AID743183 (Broad Institute, 2013).
Records with an inconclusive call do not appear. Active and inactive are the calls of the source. How the calls were made is not given here.

test system: non-replicating M. tuberculosis, luciferase reporter luminescence; test: inhibitors of non-replicating M. tuberculosis, dose response, luciferase, dry powder (AID 743183); conditions: not given

Point of comparison: `CCOC(=O)c1cc(-c2csc(COc3ccccc3)n2)on1`, AC90 6.95 µM. Against it:
- Clc1cccc(CNCCNCc2cccc(Cl)c2)c1 — 2.8-fold higher, 19.4 µM
- Cc1cccc(C)c1N1C(=O)CC(N2CCSCC2)C1=O (configuration not stated) — within 1.5-fold, 4.7 µM
- Cc1nnc(NC(=O)c2ccc3ccccc3c2)o1 — 19-fold lower, 0.372 µM
- COC(=O)COc1cccc(NC(=O)c2ccc(Cl)cc2)c1 — 1.7-fold higher, 11.7 µM
- COC(=O)COc1ccc2c(=O)c(Oc3ccccc3)c(C)oc2c1 — 2.4-fold lower, 2.94 µM
- O=C(NC1CC2CCC1C2)C1COc2ccccc2O1 (configuration not stated) — 5-fold lower, 1.39 µM
- O=C(Nc1nc2ccccc2[nH]1)c1cccc(Cl)c1 — within 1.5-fold, 4.96 µM
- CCOC(=O)COc1ccc2c(=O)c(-c3ccccc3)coc2c1 — 1.9-fold lower, 3.65 µM
- Brc1c(-c2ccc3c(c2)OCO3)nc2ncccn12 — 1.9-fold higher, 12.9 µM
- C=CCn1c(NC(=O)c2ccccc2)nc2ccccc21 — within 1.5-fold, 7.69 µM
- Clc1cccc(-c2ccc(CNCc3ccccn3)o2)c1 — 2.3-fold higher, 16.3 µM
- O=C(CCc1ccccc1)NC1C2CC3CC(C2)CC1C3 (configuration not stated) — within 1.5-fold, 10.3 µM
- CCCCN(C/C=C/c1ccccc1OC)Cc1ccccc1 — 3.5-fold higher, 24.6 µM
- CCOCCOC(=O)COc1ccc2c(-c3ccccc3)cc(=O)oc2c1 — within 1.5-fold, 8.82 µM
- Cc1cc(C)n2nc(S(=O)(=O)Nc3c(Cl)cccc3Cl)nc2n1 — within 1.5-fold, 5.45 µM
- NC(=O)C1(N2CCCCC2)CCN(C2CC(=O)N(CCc3ccccc3)C2=O)CC1 (configuration not stated) — 3.2-fold higher, 22.3 µM
- Cc1cc(NC(=O)C2CCCCC2)n(-c2nc3ccccc3[nH]2)n1 — 1.9-fold higher, 12.9 µM
- c1ccc(Nc2nc(-c3ccccn3)cs2)cc1 — 3.6-fold lower, 1.95 µM
- O=C(NCc1cccs1)c1ccc(Br)o1 — within 1.5-fold, 5.8 µM
- CCOC(=O)COc1ccc(C(=O)NC2CCCCC2)cc1 — within 1.5-fold, 8.93 µM
- O=C(CCN1CCC(c2cccs2)=N1)c1cccs1 — 2.1-fold higher, 14.3 µM
- O=C(COc1cccc2ccccc12)Nc1nc2ccccc2[nH]1 — within 1.5-fold, 6.61 µM
- CCCOC(=O)c1ccc(NC(=O)c2ccc(Br)o2)cc1 — within 1.5-fold, 7.14 µM
- CCc1ccc(OCCCC(=O)NCc2ccco2)cc1 — 4.6-fold higher, 31.8 µM
- Fc1ccc(-c2ccc(CNCc3ccccn3)o2)cc1Cl — 2-fold higher, 13.7 µM
- O=C(COc1c(Br)cc(Br)c2cccnc12)N1CCCCC1 — within 1.5-fold, 7.78 µM
- CCOC(=O)COc1ccc2c(=O)cc(-c3ccccc3)oc2c1 — 2.4-fold lower, 2.9 µM
- NC1CCN(c2c(F)cc3c(=O)c(C(=O)O)cn(C4CC4)c3c2Cl)C1 (configuration not stated) — 3.4-fold lower, 2.04 µM
- Cc1cccc(Cn2ccc(NC(=O)c3ccc4c(c3)OCO4)n2)c1 — within 1.5-fold, 9.73 µM
- CCOC(=O)c1cc(-c2csc(COc3ccccc3Cl)n2)on1 — 1.5-fold lower, 4.52 µM
- CS(=O)(=O)Cc1nc2ccccc2oc1=O — 5.6-fold higher, 38.6 µM
- CCOC(=O)COc1ccc2c(c1)C(=O)CC1(CCCCC1)O2 — within 1.5-fold, 5.77 µM

test system: not listed separately; test: as above; conditions: non-replicating M. tuberculosis, luciferase reporter luminescence; at 38 µM (top of the series)

With `N#Cc1nc(-c2cccs2)oc1NCCc1ccccc1` the activity change, negative = inhibition was -87.4% (inactive).
In the case of `CCOC(=O)CNC(=O)N1c2ccccc2Sc2ccccc21`, the activity change, negative = inhibition was -75.4% (inactive).
With `O=C(OCc1ccc(Cl)c(Cl)c1)c1ccccn1` the activity change, negative = inhibition was -46.6% (inactive).
For `Cc1ccc(C)c(-c2csc(NC(=O)c3cnccn3)n2)c1`, the activity change, negative = inhibition was -66.6% (inactive).
